According to patent US12673944B2, “Compounds having inhibitory activity against glucosylceramide synthase or pharmaceutically acceptable salt thereof, processes for preparing the same, and pharmaceutical compositions comprising the same” (YUHAN CORPORATION, priority 2019, dated 2026):
Read-outs that look alike come from different tables or passages of the source.

How the values were obtained:
[1] = target: T1, glucosylceramide synthase (GCS) (Homo sapiens, UniProt Q16739); assay: GCS enzyme inhibition assay (A549 cell lysate, NBD C6-ceramide, HPLC fluorescence); type: biochemical; details: inhibitory activity against GCS, 37° C., 90 minutes
T1 construct: The obtained supernatant was used; host or cells: A549 cells (lysate supernatant after sonication)
T1 sequence (Q16739 1-394): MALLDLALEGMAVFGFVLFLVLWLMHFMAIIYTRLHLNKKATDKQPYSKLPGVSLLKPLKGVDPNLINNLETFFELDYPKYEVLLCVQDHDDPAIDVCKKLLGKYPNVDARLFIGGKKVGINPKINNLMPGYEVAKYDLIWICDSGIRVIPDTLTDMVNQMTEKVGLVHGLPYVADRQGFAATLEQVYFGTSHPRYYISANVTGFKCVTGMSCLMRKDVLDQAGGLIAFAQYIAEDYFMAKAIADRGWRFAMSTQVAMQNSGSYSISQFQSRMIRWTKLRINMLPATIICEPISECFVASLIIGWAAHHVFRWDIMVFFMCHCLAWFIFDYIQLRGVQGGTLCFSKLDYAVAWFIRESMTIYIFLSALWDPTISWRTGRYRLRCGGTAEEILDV
Outline: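 A549 cell lysate (50 mM HEPES pH 7.3) served as GCS source; reactions ran 90 min at 37° C, were stopped with chloroform/methanol and lipids extracted. Activity taken as GlcCer/(Cer+GlcCer) peak area, normalised between DMSO and ibiglustat controls.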

[2] = test system: GM1 production in Jurkat cells; assay: cells; type: cell-based

Row | SMILES | IC50 [1] [nM] | IC50 ([2]; Homo sapiens, Jurkat, 72 h) [nM] | IC50 [2] [nM]
1 | CN(C)c1cc(-c2ccc3c(c2)OCC(C)(C)C3NC(=O)O[C@@H]2CN3CCC2CC3)ccc1F (stereo partly drawn) [Example 171, (S)-quinuclidin-3-yl (7-(3-(dimethylamino)-4-fluorophenyl)-3,3-dimethylchroman-4-yl)carbamate] | 0.79 | 5.23 | 
2 | CC1(C)COc2cc(-c3ccc4c(c3)OCCO4)ccc2C1NC(=O)O[C@@H]1CN2CCC1CC2 (stereo partly drawn) [Example 172, (S)-quinuclidin-3-yl (7-(2,3-dihydrobenzo[b][1,4]dioxin-6-yl)-3,3-dimethylchroman-4-yl)carbamate] | 0.37 | 1.92 | 
3 | CC1(C)COc2cc(-c3cccc4cc[nH]c34)ccc2C1NC(=O)O[C@@H]1CN2CCC1CC2 (stereo partly drawn) [Example 173, (S)-quinuclidin-3-yl (7-(1H-indol-7-yl)-3,3-dimethylchroman-4-yl)carbamate] | 1.17 | 2.95 | 
4 | CC(C)c1ccc(-c2ccc3c(c2)OCC(C)(C)C3NC(=O)O[C@@H]2CN3CCC2CC3)cc1 (stereo partly drawn) [Example 174, (S)-quinuclidin-3-yl (7-(4-isopropylphenyl)-3,3-dimethylchroman-4-yl)carbamate] | 0.35 | 1.37 | 
5 | CC1(C)COc2cc(-c3ccc(F)c(C(F)(F)F)c3)ccc2C1NC(=O)O[C@@H]1CN2CCC1CC2 (stereo partly drawn) [Example 175, (S)-quinuclidin-3-yl (7-(4-fluoro-3-(trifluoromethyl)phenyl)-3,3-dimethylchroman-4-yl)carbamate] | 0.71 | 2.2 | 
6 | COc1cccc(-c2ccc3c(c2)OCC(C)(C)C3NC(=O)O[C@@H]2CN3CCC2CC3)c1Cl (stereo partly drawn) [Example 176, (S)-quinuclidin-3-yl (7-(2-chloro-3-methoxyphenyl)-3,3-dimethylchroman-4-yl)carbamate] | 0.59 | 3.2 | 
7 | COc1cc(-c2ccc3c(c2)OCC(C)(C)C3NC(=O)O[C@@H]2CN3CCC2CC3)ccc1Cl (stereo partly drawn) [Example 177, (S)-quinuclidin-3-yl (7-(4-chloro-3-methoxyphenyl)-3,3-dimethylchroman-4-yl)carbamate] | 1.39 | 9.73 | 
8 | CC1(C)COc2cc(-c3cccc4cn[nH]c34)ccc2C1NC(=O)O[C@@H]1CN2CCC1CC2 (stereo partly drawn) [Example 178, (S)-quinuclidin-3-yl (7-(1H-indazol-7-yl)-3,3-dimethylchroman-4-yl)carbamate] | 1.14 | 4.36 | 
9 | CC1(C)COc2cc(-c3cc(Cl)cc(Cl)c3)ccc2C1NC(=O)O[C@@H]1CN2CCC1CC2 (stereo partly drawn) [Example 179, (S)-quinuclidin-3-yl (7-(3,5-dichlorophenyl)-3,3-dimethylchroman-4-yl)carbamate] | 1.31 | 4.42 | 
10 | CC1(C)COc2cc(-c3cnn(Cc4ccccc4)c3)ccc2C1NC(=O)O[C@@H]1CN2CCC1CC2 (stereo partly drawn) [Example 180, (S)-quinuclidin-3-yl (7-(1-benzyl-1H-pyrazol-4-yl)-3,3-dimethylchroman-4-yl)carbamate] | 0.44 | 3.42 | 
11 | CC1(C)COc2cc(-c3ccc4c(c3)CCO4)ccc2C1NC(=O)O[C@@H]1CN2CCC1CC2 (stereo partly drawn) [Example 181, (S)-quinuclidin-3-yl (7-(2,3-dihydrobenzofuran-5-yl)-3,3-dimethylchroman-4-yl)carbamate] | 0.5 | 5.55 | 
12 | CC1(C)COc2cc(-c3ccc(OCC4CC4)nc3)ccc2C1NC(=O)O[C@@H]1CN2CCC1CC2 (stereo partly drawn) [Example 182, (S)-quinuclidin-3-yl (7-(6-(cyclopropylmethoxy)pyridin-3-yl)-3,3-dimethylchroman-4-yl)carbamate] | 0.25 | 0.79 | 
13 | CC1(C)COc2cc(-c3cc4ccccc4o3)ccc2C1NC(=O)O[C@@H]1CN2CCC1CC2 (stereo partly drawn) [Example 183, (S)-quinuclidin-3-yl (7-(benzofuran-2-yl)-3,3-dimethylchroman-4-yl)carbamate] | 1.22 | 6.43 | 
14 | CC1(C)COc2cc(-c3cccc(S(=O)(=O)N4CCCC4)c3)ccc2C1NC(=O)O[C@@H]1CN2CCC1CC2 (stereo partly drawn) [Example 184, (S)-quinuclidin-3-yl (3,3-dimethyl-7-(3-(pyrrolidin-1-ylsulfonyl)phenyl)chroman-4-yl)carbamate] | 0.91 | 4.16 | 
15 | CC1(C)COc2cc(-c3ccccc3C(F)(F)F)ccc2C1NC(=O)O[C@@H]1CN2CCC1CC2 (stereo partly drawn) [Example 185, (S)-quinuclidin-3-yl (3,3-dimethyl-7-(2-(trifluoromethyl)phenyl)chroman-4-yl)carbamate] | 0.67 | 0.98 | 
16 | CCOc1ccccc1-c1ccc2c(c1)OCC(C)(C)C2NC(=O)O[C@@H]1CN2CCC1CC2 (stereo partly drawn) [Example 186, (S)-quinuclidin-3-yl (7-(2-ethoxyphenyl)-3,3-dimethylchroman-4-yl)carbamate] | 0.38 | 2.81 | 

Row | SMILES | IC50 [1] [nM] | IC50 ([2]; Homo sapiens, Jurkat, 72 h) [nM] | IC50 [2] [nM]
17 | CC1(C)COc2cc(-c3ccsc3)ccc2C1NC(=O)O[C@@H]1CN2CCC1CC2 (stereo partly drawn) [Example 187, (S)-quinuclidin-3-yl (3,3-dimethyl-7-(thiophen-3-yl)chroman-4-yl)carbamate] | 0.32 | 2.06 | 
18 | COc1ccc(-c2ccc3c(c2)OCC(C)(C)C3NC(=O)O[C@@H]2CN3CCC2CC3)cc1C(F)(F)F (stereo partly drawn) [Example 188, (S)-quinuclidin-3-yl (7-(4-methoxy-3-(trifluoromethyl)phenyl)-3,3-dimethylchroman-4-yl)carbamate] | 0.75 |  | 4.59
19 | CC1(C)COc2cc(-c3ccccc3C#N)ccc2C1NC(=O)O[C@@H]1CN2CCC1CC2 (stereo partly drawn) [Example 189, (S)-quinuclidin-3-yl (7-(2-cyanophenyl)-3,3-dimethylchroman-4-yl)carbamate] | 0.36 | 0.04 | 
20 | CC1(C)COc2cc(-c3ccc4c(c3)OCCCO4)ccc2C1NC(=O)O[C@@H]1CN2CCC1CC2 (stereo partly drawn) [Example 190, (S)-quinuclidin-3-yl (7-(3,4-dihydro-2H-benzo[b][1,4]dioxepin-7-yl)-3,3-dimethylchroman-4-yl)carbamate] | 0.29 | 0.03 | 
21 | CC1(C)COc2cc(-c3ccc4nsnc4c3)ccc2C1NC(=O)O[C@@H]1CN2CCC1CC2 (stereo partly drawn) [Example 191, (S)-quinuclidin-3-yl (7-(benzo[c][1,2,5]thiadiazol-5-yl)-3,3-dimethylchroman-4-yl)carbamate] | 0.63 | 0.31 | 
22 | CC1(C)COc2cc(-c3cncc4ccccc34)ccc2C1NC(=O)O[C@@H]1CN2CCC1CC2 (stereo partly drawn) [Example 192, (S)-quinuclidin-3-yl (7-(isoquinolin-4-yl)-3,3-dimethylchroman-4-yl)carbamate] | 0.92 |  | 1.35
23 | CC(C)(C)c1ccc(-c2ccc3c(c2)OCC(C)(C)C3NC(=O)O[C@@H]2CN3CCC2CC3)cc1 (stereo partly drawn) [Example 193, (S)-quinuclidin-3-yl (7-(4-(tert-butyl)phenyl)-3,3-dimethylchroman-4-yl)carbamate] | 0.51 | 0.46 | 
24 | Cc1cc(-c2ccc3c(c2)OCC(C)(C)C3NC(=O)O[C@@H]2CN3CCC2CC3)ccc1N1CCOCC1 (stereo partly drawn) [Example 194, (S)-quinuclidin-3-yl (3,3-dimethyl-7-(3-methyl-4-morpholinophenyl)chroman-4-yl)carbamate] | 0.6 | 1.81 | 
25 | CC1(C)COc2cc(-c3ccc(Cl)c(Cl)c3)ccc2C1NC(=O)O[C@@H]1CN2CCC1CC2 (stereo partly drawn) [Example 195, (S)-quinuclidin-3-yl (7-(3,4-dichlorophenyl)-3,3-dimethylchroman-4-yl)carbamate] | 1.14 | 1.39 | 
26 | Cn1ncc2ccc(-c3ccc4c(c3)OCC(C)(C)C4NC(=O)O[C@@H]3CN4CCC3CC4)cc21 (stereo partly drawn) [Example 196, (S)-quinuclidin-3-yl (3,3-dimethyl-7-(1-methyl-1H-indazol-6-yl)chroman-4-yl)carbamate] | 1.25 | 6.13 | 
27 | CC1(C)COc2cc(-c3ccc4cc[nH]c4c3)ccc2C1NC(=O)O[C@@H]1CN2CCC1CC2 (stereo partly drawn) [Example 197, (S)-quinuclidin-3-yl (7-(1H-indol-6-yl)-3,3-dimethylchroman-4-yl)carbamate] | 0.9 | 1.99 | 
28 | CN1CCOc2cc(-c3ccc4c(c3)OCC(C)(C)C4NC(=O)O[C@@H]3CN4CCC3CC4)ccc21 (stereo partly drawn) [Example 198, (S)-quinuclidin-3-yl (3,3-dimethyl-7-(4-methyl-3,4-dihydro-2H-benzo[b][1,4]oxazin-7-yl)chroman-4-yl)carbamate] | 0.66 | 1.83 | 
29 | Cc1ccc(-c2ccc3c(c2)OCC(C)(C)C3NC(=O)O[C@@H]2CN3CCC2CC3)cc1C#N (stereo partly drawn) [Example 199, (S)-quinuclidin-3-yl (7-(3-cyano-4-methylphenyl)-3,3-dimethylchroman-4-yl)carbamate] | 0.51 | 3.63 | 
30 | CC1(C)COc2cc(-c3cc(F)c(F)cc3F)ccc2C1NC(=O)O[C@@H]1CN2CCC1CC2 (stereo partly drawn) [Example 200, (S)-quinuclidin-3-yl (3,3-dimethyl-7-(2,4,5-trifluorophenyl)chroman-4-yl)carbamate] | 0.49 | 1.94 | 
31 | CC1(C)COc2cc(-c3ccc(OC(F)(F)F)cc3)ccc2C1NC(=O)O[C@@H]1CN2CCC1CC2 (stereo partly drawn) [Example 201, (S)-quinuclidin-3-yl (3,3-dimethyl-7-(4-(trifluoromethoxy)phenyl)chroman-4-yl)carbamate] | 0.41 | 1.12 | 
